Here are results for 13 compounds from patent US12371454B2, “Cyclic peptide compound having Kras inhibitory action” (priority 2019, dated 2025).

Structures are written as SMILES. Starred links: 1 amine or outer side, 2 acyl side, 3 side chain; linkers in the order of their positions; H or OH if unused. Positions of bridges follow the written chain, without caps; N, C: chain ends. Non-standard residues stand in square brackets, D forms with d. Residues, ends and D or L forms follow the SMILES beside them. *: point of attachment. hPhe(3,5-F2-4-CF3) = N[C@@H](CCc1cc(F)c(C(F)(F)F)c(F)c1)C(=O)O; hPhe(3-Cl-4-CF3) = N[C@@H](CCc1ccc(C(F)(F)F)c(Cl)c1)C(=O)O; hPhe(3-F,4-CF3) = N[C@@H](CCc1ccc(C(F)(F)F)c(F)c1)C(=O)O; hPhe(4-CF3) = N[C@@H](CCc1ccc(C(F)(F)F)cc1)C(=O)O; 3Oxa8azabicyclo(3.2.1)octane = C1CC2COCC1N2*; NEtPhe(4-Me) = CCN[C@@H](Cc1ccc(C)cc1)C(=O)O; NMePhe(3-Br) = CN[C@@H](Cc1cccc(Br)c1)C(=O)O; NMePhe(4-Cl) = CN[C@@H](Cc1ccc(Cl)cc1)C(=O)O; NMePhe(2-CN) = CN[C@@H](Cc1ccccc1C#N)C(=O)O; NMePhe(3-Me) = CN[C@@H](Cc1cccc(C)c1)C(=O)O; NMePhe(3-F) = CN[C@@H](Cc1cccc(F)c1)C(=O)O; NMedβ3hAla = C[C@H](CC(=O)[*:2])N(C)[*:1]; NMeGly(cPent) = CN[C@H](C(=O)O)C1CCCC1; Pro(4,4-F2) = O=C(O)[C@@H]1CC(F)(F)CN1; NMeCha = CN[C@@H](CC1CCCCC1)C(=O)O; NMeChg = CN[C@H](C(=O)O)C1CCCCC1; N(CH2CH2)2CF2 = FC1(F)CCN(*)CC1; NMeD = CN[C@@H](CC(=O)O)C(=O)O; CH2CONHtBu = CC(C)(C)NC(=O)C*; NMeL = CN[C@@H](CC(C)C)C(=O)O; Chg = N[C@H](C(=O)O)C1CCCCC1; NMeV = CN[C@H](C(=O)O)C(C)C; d(β3hA) = C[C@@H](N)CC(=O)O; NMeA = CN[C@@H](C)C(=O)O; NMeAib = CNC(C)(C)C(=O)O; Nle = CCCC[C@H](N)C(=O)O; Piperidide = C1CCN(*)CC1; Pyrrolidide = C1CCN(*)C1; dNMeA = CN[C@H](C)C(=O)O; Ac5c = NC1(C(=O)O)CCCC1; Aze = O=C(O)[C@@H]1CCN1; Sar = CNCC(=O)O

In this experiment the target is T1, Kras and SOS1 (biotin-tagged human Kras loaded with GDP, His-tagged human SOS1) (Homo sapiens, UniProt P01116, G12D).
T1 construct: made in house; host or cells: E. coli (stated for Kras only)
T1 sequence (P01116 1-188 isoform P01116-2 G12D): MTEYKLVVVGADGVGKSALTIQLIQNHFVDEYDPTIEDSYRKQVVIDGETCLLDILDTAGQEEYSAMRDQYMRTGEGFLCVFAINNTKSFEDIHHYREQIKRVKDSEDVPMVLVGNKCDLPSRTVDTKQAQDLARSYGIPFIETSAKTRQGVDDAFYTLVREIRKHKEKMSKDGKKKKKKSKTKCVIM
The experiment can be described thus: Protein-protein interaction inhibition between Kras and SOS1 (KrasGl2D-SOS PPI) using AlphaScreen. The experiment is classed as binding. To be noted: AlphaScreen; biotin-tagged human Kras loaded with GDP, His-tagged human SOS1; read-out: KRAS G12D-SOS PPI IC50. A digest of the protocol:
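Read-out is acceptor-bead light at 520-620 nm, arising when 680 nm-irradiated nickel donor beads pass singlet oxygen to streptavidin acceptors. The bead pair links His-tagged SOS1 with biotin-tagged, GDP-bound Kras from E. coli.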
Usually IC50 stands for the concentration needed to halve the response being measured. On to `CC[C@H](C)[C@@H]1NC(=O)[C@H](CC(C)C)N(C)C(=O)C[C@@H](C(=O)N(C)C)N(C)C(=O)[C@H](C2CCCC2)N(C)C(=O)C2(CCCC2)NC(=O)[C@H](Cc2cccc(F)c2)N(C)C(=O)[C@H](CCc2ccc(C(F)(F)F)c(Cl)c2)NC(=O)CN(C)C(=O)[C@H](CC2CCCCC2)N(C)C(=O)[C@@H]2CCN2C(=O)[C@H](C)N(C)C1=O` [Compound 95] ([NMeL]I[NMeA][Aze][NMeCha][Sar][hPhe(3-Cl-4-CF3)][NMePhe(3-F)][Ac5c][NMeGly(cPent)][NMeD]-NMe2; lactam N-11), for which the IC50 was 11 nM. As to `CC[C@H](C)[C@@H]1NC(=O)[C@H](CC(C)C)N(C)C(=O)C[C@@H](C(=O)N2CCCCC2)N(C)C(=O)[C@H](C(C)C)N(C)C(=O)C2(CCCC2)NC(=O)[C@@H]2CCCN2C(=O)[C@H](CCc2ccc(C(F)(F)F)c(Cl)c2)NC(=O)CN(C)C(=O)[C@H](Cc2ccccc2C#N)N(C)C(=O)CN(C)C(=O)CN(C)C1=O` [Compound 935] ([NMeL]I[Sar][Sar][NMePhe(2-CN)][Sar][hPhe(3-Cl-4-CF3)]P[Ac5c][NMeV][NMeD]-Piperidide; lactam N-11), the IC50 stood at 6 nM. For `CC(C)C[C@H]1C(=O)N[C@@H](C2CCCCC2)C(=O)N(C)CC(=O)N(C)CC(=O)N(C)[C@@H](CC2CCCCC2)C(=O)N(C)CC(=O)N[C@@H](CCc2ccc(C(F)(F)F)c(F)c2)C(=O)N2CCC[C@H]2C(=O)NC2(CCCC2)C(=O)N(C)[C@@H](CC(C)C)C(=O)N[C@H](C)CC(=O)N1C` [Compound 1527] (cyclo([Ac5c][NMeL][d(β3hA)][NMeL][Chg][Sar][Sar][NMeCha][Sar][hPhe(3-F,4-CF3)]P)) the value was 190 nM; for `CC[C@H](C)[C@@H]1NC(=O)[C@H](CC(C)C)N(C)C(=O)C[C@@H](C(=O)N2CCCCC2)N(C)C(=O)[C@H](CC(C)C)N(C)C(=O)C2(CCCC2)NC(=O)[C@@H]2CCCN2C(=O)[C@H](CCc2ccc(C(F)(F)F)c(F)c2)NC(=O)CN(C)C(=O)[C@H](Cc2ccc(Cl)cc2)N(C)C(=O)CN(C)C(=O)CN(C)C1=O` [Compound 1061] ([NMeL]I[Sar][Sar][NMePhe(4-Cl)][Sar][hPhe(3-F,4-CF3)]P[Ac5c][NMeL][NMeD]-Piperidide; lactam N-11), 14 nM. For `CC[C@H](C)[C@@H]1NC(=O)[C@H](C)N(C)C(=O)C[C@@H](C)NC(=O)[C@H](C2CCCC2)N(C)C(=O)C2(CCCC2)NC(=O)[C@@H]2CCCN2C(=O)[C@H](CCc2ccc(C(F)(F)F)c(Cl)c2)NC(=O)[C@@H](C)N(C)C(=O)[C@H](Cc2cccc(C)c2)N(C)C(=O)CN(C)C(=O)CN(C)C1=O` [Compound 1088] (cyclo([Ac5c][NMeGly(cPent)][d(β3hA)][NMeA]I[Sar][Sar][NMePhe(3-Me)][dNMeA][hPhe(3-Cl-4-CF3)]P)) the value was 170 nM; for `CCCC[C@@H]1NC(=O)[C@H](CC(C)C)N(C)C(=O)C[C@@H](C(=O)N2CCCCC2)N(C)C(=O)[C@H](C2CCCCC2)N(C)C(=O)C2(CCCC2)NC(=O)[C@@H]2CCCN2C(=O)[C@H](CCc2ccc(C(F)(F)F)c(Cl)c2)NC(=O)CN(C)C(=O)[C@H](CC2CCCCC2)N(C)C(=O)CN(C)C(=O)CN(C)C1=O` [Compound 1723] ([NMeL][Nle][Sar][Sar][NMeCha][Sar][hPhe(3-Cl-4-CF3)]P[Ac5c][NMeChg][NMeD]-Piperidide; lactam N-11), 3.6 nM.

Turning to `CC[C@H](C)[C@@H]1NC(=O)[C@H](CC(C)C)N(C)C(=O)C[C@@H](C)NC(=O)[C@H](C(C)C)N(C)C(=O)C2(CCCC2)NC(=O)[C@@H]2CCCN2C(=O)[C@H](CCc2ccc(C(F)(F)F)c(Cl)c2)NC(=O)CN(C)C(=O)[C@H](Cc2cccc(Br)c2)N(C)C(=O)CN(C)C(=O)CN(C)C1=O` [Compound 1587] (cyclo([Ac5c][NMeV][d(β3hA)][NMeL]I[Sar][Sar][NMePhe(3-Br)][Sar][hPhe(3-Cl-4-CF3)]P)), the IC50 was 31 nM.

With `CC[C@H](C)[C@@H]1NC(=O)[C@H](C)N(C)C(=O)C[C@@H](C)N(C)C(=O)[C@H](C2CCCCC2)N(C)C(=O)C2(CCCC2)NC(=O)[C@@H]2CCCN2C(=O)[C@H](CCc2ccc(C(F)(F)F)c(Cl)c2)NC(=O)CN(C)C(=O)[C@H](CC2CCCCC2)N(C)C(=O)CN(C)C(=O)CN(C)C1=O` [Compound 1808] (cyclo([Ac5c][NMeChg][NMedβ3hAla][NMeA]I[Sar][Sar][NMeCha][Sar][hPhe(3-Cl-4-CF3)]P)), the IC50 amounted to 47 nM. For `CC[C@H](C)[C@@H]1NC(=O)[C@H](CC(C)C)N(C)C(=O)C[C@@H](C(=O)N2CCCC2)N(C)C(=O)[C@H](C2CCCC2)N(C)C(=O)C2(CCCC2)NC(=O)[C@@H]2CC(F)(F)CN2C(=O)[C@H](CCc2cc(F)c(C(F)(F)F)c(F)c2)NC(=O)CN(C)C(=O)[C@H](CC2CCCCC2)N(C)C(=O)CN(C)C(=O)CN(C)C1=O` [Compound 1166] ([NMeL]I[Sar][Sar][NMeCha][Sar][hPhe(3,5-F2-4-CF3)][Pro(4,4-F2)][Ac5c][NMeGly(cPent)][NMeD]-Pyrrolidide; lactam N-11), the IC50 worked out at 0.47 nM. For `CC[C@H](C)[C@@H]1NC(=O)[C@H](CC(C)C)N(C)C(=O)C[C@@H](C)N(C)C(=O)[C@H](CC(C)C)NC(=O)C(C)(C)N(C)C(=O)[C@H](CC(C)C)NC(=O)[C@H](CCc2ccc(C(F)(F)F)c(Cl)c2)NC(=O)CN(C)C(=O)[C@H](CC2CCCCC2)N(C)C(=O)[C@@H]2CCN2C(=O)CN(C)C1=O` [Compound 57] (cyclo([Aze][NMeCha][Sar][hPhe(3-Cl-4-CF3)]L[NMeAib]L[NMedβ3hAla][NMeL]I[Sar])) the value was 16 nM; for `CC[C@H](C)[C@@H]1NC(=O)[C@H](CC(C)C)N(C)C(=O)C[C@@H](C(=O)N2C3CCC2COC3)N(C)C(=O)[C@H](C2CCCC2)N(C)C(=O)C2(CCCC2)NC(=O)[C@@H]2CCCN2C(=O)[C@H](CCc2cc(F)c(C(F)(F)F)c(F)c2)NC(=O)CN(C)C(=O)[C@H](Cc2ccc(C)cc2)N(CC)C(=O)[C@@H]2CCN2C(=O)[C@H](C)N(C)C1=O` [Compound 1215] ([NMeL]I[NMeA][Aze][NEtPhe(4-Me)][Sar][hPhe(3,5-F2-4-CF3)]P[Ac5c][NMeGly(cPent)][NMeD]-{3Oxa8azabicyclo(3.2.1)octane}; lactam N-11), 1.8 nM; for `CC[C@H](C)[C@@H]1NC(=O)[C@H](C)N(C)C(=O)C[C@@H](C(=O)N2CCCCC2)N(C)C(=O)[C@H](C(C)C)N(C)C(=O)[C@H](CC(C)C)NC(=O)[C@H](CC(=O)N2CCC(F)(F)CC2)N(C)C(=O)[C@H](CCc2ccc(C(F)(F)F)c(Cl)c2)NC(=O)CN(C)C(=O)[C@H](CC2CCCCC2)N(C)C(=O)CN(C)C(=O)CN(C)C1=O` [Compound 826] ([NMeA]I[Sar][Sar][NMeCha][Sar][hPhe(3-Cl-4-CF3)][NMeD](N(CH2CH2)2CF2)L[NMeV][NMeD]-Piperidide; lactam N-11), 110 nM.

With `CC[C@H](C)[C@@H]1NC(=O)[C@H](C)N(C)C(=O)C[C@@H](C(=O)N2CCCC2)NC(=O)[C@H](CC(C)C)N(C)C(=O)[C@H](COCC(=O)NC(C)(C)C)NC(=O)[C@H](CC(C)C)NC(=O)[C@H](CCc2ccc(C(F)(F)F)cc2)NC(=O)CN(C)C(=O)[C@H](Cc2ccc(Cl)cc2)N(C)C(=O)CN(C)C(=O)CN(C)C1=O` [Compound 53] ([NMeA]I[Sar][Sar][NMePhe(4-Cl)][Sar][hPhe(4-CF3)]LS(CH2CONHtBu)[NMeL]D-Pyrrolidide; lactam N-11), the IC50 is 120 nM.
